From PubChem BioAssay AID252 (DTP/NCI, 2004)
Several values for one entry are separate records, joined by “and”; a condition that tells them apart may be missing. Equal values may be shown once. Inconclusive results and toxic doses are left out.

Test system: BDF1 mice, intracerebral L1210 leukemia, survival T/C
Assay: NCI In Vivo Anticancer Drug Screen. Data for tumor model L1210 Leukemia (intracerebral) in B6D2F1 (BDF1) mice
Details: higher = longer survival
How it was run: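 Mice carrying transplanted tumour were dosed with compound; survival was recorded and expressed as treated-group value (T) divided by vehicle-control value (C).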

[1] = endpoint: mean survival time, dose: 500.0 mg/kg/injection, schedule: Q01DX001 (ip), vehicle: carboxymethylcellulose (CMC)
[2] = endpoint: mean survival time, dose: 250.0 mg/kg/injection, schedule: Q01DX001 (ip), vehicle: other
[3] = endpoint: mean survival time, dose: 250.0 mg/kg/injection, schedule: Q01DX001 (ip), vehicle: carboxymethylcellulose (CMC)

## O=NN(CCCl)C(=O)Nc1ccccc1Cl
endpoint: mean survival time, dose: 22.0 mg/kg/injection, schedule: Q01DX001 (ip), vehicle: carboxymethylcellulose (CMC)
  T/C: 100 % of control
endpoint: mean survival time, dose: 33.0 mg/kg/injection, schedule: Q01DX001 (ip), vehicle: carboxymethylcellulose (CMC)
  T/C: 89 % of control
endpoint: mean survival time, dose: 50.0 mg/kg/injection, schedule: Q01DX001 (ip), vehicle: carboxymethylcellulose (CMC)
  T/C: 100 % of control

## CN(N=O)C(=O)NCCSc1ncnc2nc[nH]c12
endpoint: mean survival time, dose: 400.0 mg/kg/injection, schedule: Q01DX001 (ip), vehicle: carboxymethylcellulose (CMC)
  T/C: 113 % of control
[1]
  T/C: 121 % of control

## Nc1nncs1
endpoint: mean survival time, dose: 135.0 mg/kg/injection, schedule: Q01DX009 (ip), vehicle: saline
  T/C: 101 % of control
endpoint: median survival time, dose: 64.0 mg/kg/injection, schedule: Q01DX005 (ip), vehicle: saline with Tween-80
  T/C: 120 % of control
endpoint: median survival time, dose: 512.0 mg/kg/injection, schedule: Q01DX005 (ip), vehicle: saline with Tween-80
  T/C: 100 % of control

## COC12C(COC(N)=O)C3=C(C(=O)C(C)=C(N)C3=O)N1CC1C2N1C (stereo unspecified)
endpoint: mean survival time, dose: 11.0 mg/kg/injection, schedule: Q01DX001 (ip), vehicle: carboxymethylcellulose (CMC)
  T/C: 92 % of control
endpoint: mean survival time, dose: 17.0 mg/kg/injection, schedule: Q01DX001 (ip), vehicle: carboxymethylcellulose (CMC)
  T/C: 98 % of control
endpoint: mean survival time, dose: 26.0 mg/kg/injection, schedule: Q01DX001 (ip), vehicle: carboxymethylcellulose (CMC)
  T/C: 97 % of control

## O=NN(CCCl)C(=O)Nc1c[nH]c(=O)[nH]c1=O
endpoint: mean survival time, dose: 4.4 mg/kg/injection, schedule: Q01DX001 (ip), vehicle: carboxymethylcellulose (CMC)
  T/C: 103 % of control
endpoint: mean survival time, dose: 6.7 mg/kg/injection, schedule: Q01DX001 (ip), vehicle: carboxymethylcellulose (CMC)
  T/C: 101 % of control
endpoint: mean survival time, dose: 10.0 mg/kg/injection, schedule: Q01DX001 (ip), vehicle: carboxymethylcellulose (CMC)
  T/C: 102 % of control
endpoint: mean survival time, dose: 15.0 mg/kg/injection, schedule: Q01DX001 (ip), vehicle: carboxymethylcellulose (CMC)
  T/C: 103 % of control
endpoint: mean survival time, dose: 20.0 mg/kg/injection, schedule: Q01DX001 (ip), vehicle: carboxymethylcellulose (CMC)
  T/C: 98 % of control
endpoint: mean survival time, dose: 30.0 mg/kg/injection, schedule: Q01DX001 (ip), vehicle: carboxymethylcellulose (CMC)
  T/C: 107 % of control
endpoint: mean survival time, dose: 40.0 mg/kg/injection, schedule: Q01DX001 (ip), vehicle: carboxymethylcellulose (CMC)
  T/C: 100 % of control
endpoint: mean survival time, dose: 60.0 mg/kg/injection, schedule: Q01DX001 (ip), vehicle: carboxymethylcellulose (CMC)
  T/C: 94 % of control

## Cc1[nH]c(=O)[nH]c(=O)c1N(CCF)CCCl
endpoint: mean survival time, dose: 3.5 mg/kg/injection, schedule: Q01DX009 (ip), vehicle: Klucel (hydroxypropylcellulose) (HPC)
  T/C: 97 % of control
endpoint: mean survival time, dose: 7.0 mg/kg/injection, schedule: Q01DX009 (ip), vehicle: Klucel (hydroxypropylcellulose) (HPC)
  T/C: 88 % of control
endpoint: mean survival time, dose: 14.0 mg/kg/injection, schedule: Q01DX009 (ip), vehicle: Klucel (hydroxypropylcellulose) (HPC)
  T/C: 111 % of control
endpoint: mean survival time, dose: 28.0 mg/kg/injection, schedule: Q01DX009 (ip), vehicle: Klucel (hydroxypropylcellulose) (HPC)
  T/C: 94 % of control

## O=C1C=CN(C2OC(CO)C(O)C2O)C(=O)C1 (stereo unspecified)
endpoint: median survival time, dose: 200.0 mg/kg/injection, schedule: Q01DX009 (ip), vehicle: saline
  T/C: 150 % of control

## CCOC(=O)C1(NC(=O)N(CCCl)N=O)CCCCC1
endpoint: mean survival time, dose: 62.0 mg/kg/injection, schedule: Q01DX001 (ip), vehicle: other
  T/C: 110 % of control
[2]
  T/C: 192 % of control and 200 % of control
endpoint: mean survival time, dose: 500.0 mg/kg/injection, schedule: Q01DX001 (ip), vehicle: other
  T/C: 190 % of control and 196 % of control
endpoint: mean survival time, dose: 750.0 mg/kg/injection, schedule: Q01DX001 (ip), vehicle: other
  T/C: 215 % of control
endpoint: mean survival time, dose: 1000.0 mg/kg/injection, schedule: Q01DX001 (ip), vehicle: other
  T/C: 156 % of control

## CCCCCCCCCCCCCCCC(=O)OCC1OC(n2ccc(N)nc2=O)C(O)C1O (stereo unspecified)
endpoint: mean survival time, dose: 5.0 mg/kg/injection, schedule: Q01DX005 (ip), vehicle: other
  T/C: 111 % of control (2×) and 117 % of control
endpoint: mean survival time, dose: 20.0 mg/kg/injection, schedule: Q01DX005 (ip), vehicle: other
  T/C: 154 % of control and 177 % of control and 180 % of control
endpoint: mean survival time, dose: 25.0 mg/kg/injection, schedule: Q01DX001 (ip), vehicle: other
  T/C: 110 % of control and 112 % of control and 116 % of control
endpoint: mean survival time, dose: 25.0 mg/kg/injection, schedule: Q01DX005 (ip), vehicle: other
  T/C: 171 % of control and 192 % of control and 202 % of control
endpoint: mean survival time, dose: 30.0 mg/kg/injection, schedule: Q01DX005 (ip), vehicle: other
  T/C: 169 % of control and 204 % of control and 242 % of control
endpoint: mean survival time, dose: 35.0 mg/kg/injection, schedule: Q01DX005 (ip), vehicle: other
  T/C: 201 % of control and 211 % of control and 214 % of control
endpoint: mean survival time, dose: 100.0 mg/kg/injection, schedule: Q01DX001 (ip), vehicle: other
  T/C: 166 % of control
endpoint: mean survival time, dose: 150.0 mg/kg/injection, schedule: Q01DX001 (ip), vehicle: other
  T/C: 173 % of control and 191 % of control and 213 % of control
endpoint: mean survival time, dose: 200.0 mg/kg/injection, schedule: Q01DX001 (ip), vehicle: other
  T/C: 170 % of control and 216 % of control and 242 % of control
[2]
  T/C: 161 % of control and 195 % of control and 222 % of control
endpoint: median survival time, dose: 25.0 mg/kg/injection, schedule: Q01DX009 (ip), vehicle: saline with Tween-80
  T/C: 295 % of control
endpoint: median survival time, dose: 50.0 mg/kg/injection, schedule: Q01DX009 (ip), vehicle: saline with Tween-80
  T/C: 106 % of control

## CN(N=O)C(=O)NCCCCNC(=O)N(C)N=O
[3]
  T/C: 103 % of control
endpoint: mean survival time, dose: 300.0 mg/kg/injection, schedule: Q01DX001 (ip), vehicle: carboxymethylcellulose (CMC)
  T/C: 110 % of control
[1]
  T/C: 102 % of control
endpoint: mean survival time, dose: 750.0 mg/kg/injection, schedule: Q01DX001 (ip), vehicle: carboxymethylcellulose (CMC)
  T/C: 110 % of control

## CCOC(=O)c1ccc(NC(=O)N(CCCl)N=O)cc1
endpoint: mean survival time, dose: 4.0 mg/kg/injection, schedule: Q01DX001 (ip), vehicle: carboxymethylcellulose (CMC)
  T/C: 108 % of control
endpoint: mean survival time, dose: 6.0 mg/kg/injection, schedule: Q01DX001 (ip), vehicle: carboxymethylcellulose (CMC)
  T/C: 107 % of control
endpoint: mean survival time, dose: 9.0 mg/kg/injection, schedule: Q01DX001 (ip), vehicle: carboxymethylcellulose (CMC)
  T/C: 108 % of control
endpoint: mean survival time, dose: 13.5 mg/kg/injection, schedule: Q01DX001 (ip), vehicle: carboxymethylcellulose (CMC)
  T/C: 113 % of control

## CN(Cc1cnc2nc(N[Si](C)(C)C)nc(N[Si](C)(C)C)c2n1)c1ccc(C(=O)NC(CCC(=O)O[Si](C)(C)C)C(=O)O[Si](C)(C)C)cc1 (stereo unspecified)
endpoint: mean survival time, dose: 1.0 mg/kg/injection, schedule: Q01DX009 (ip), vehicle: Klucel (hydroxypropylcellulose) (HPC)
  T/C: 118 % of control
endpoint: mean survival time, dose: 2.0 mg/kg/injection, schedule: Q01DX009 (ip), vehicle: saline
  T/C: 173 % of control
endpoint: mean survival time, dose: 4.0 mg/kg/injection, schedule: Q01DX009 (ip), vehicle: Klucel (hydroxypropylcellulose) (HPC)
  T/C: 110 % of control
endpoint: mean survival time, dose: 4.0 mg/kg/injection, schedule: Q01DX009 (ip), vehicle: saline
  T/C: 93 % of control

## CN1CCN(CCCN2c3ccccc3Sc3ccc(C(F)(F)F)cc32)CC1
endpoint: mean survival time, dose: 44.0 mg/kg/injection, schedule: Q04DX003 (ip), vehicle: water
  T/C: 108 % of control

## O=NN1CCCNC1=O
endpoint: mean survival time, dose: 75.0 mg/kg/injection, schedule: Q01DX001 (ip), vehicle: carboxymethylcellulose (CMC)
  T/C: 119 % of control
endpoint: mean survival time, dose: 111.0 mg/kg/injection, schedule: Q01DX001 (ip), vehicle: carboxymethylcellulose (CMC)
  T/C: 117 % of control
endpoint: mean survival time, dose: 150.0 mg/kg/injection, schedule: Q01DX001 (ip), vehicle: carboxymethylcellulose (CMC)
  T/C: 153 % of control
endpoint: mean survival time, dose: 167.0 mg/kg/injection, schedule: Q01DX001 (ip), vehicle: carboxymethylcellulose (CMC)
  T/C: 186 % of control
[3]
  T/C: 91 % of control

## COc1cc(NS(C)(=O)=O)ccc1Nc1c2ccccc2nc2c(C)cccc12
endpoint: mean survival time, dose: 2.5 mg/kg/injection, schedule: Q01DX009 (ip), vehicle: water
  T/C: 116 % of control and 113 % of control
endpoint: mean survival time, dose: 2.5 mg/kg/injection, schedule: Q01DX009 (sc), vehicle: water
  T/C: 112 % of control and 111 % of control
endpoint: mean survival time, dose: 5.0 mg/kg/injection, schedule: Q01DX009 (ip), vehicle: water
  T/C: 112 % of control
endpoint: mean survival time, dose: 5.0 mg/kg/injection, schedule: Q01DX009 (sc), vehicle: water
  T/C: 105 % of control and 104 % of control
endpoint: mean survival time, dose: 10.0 mg/kg/injection, schedule: Q01DX009 (sc), vehicle: water
  T/C: 103 % of control

## CN1CCN(CCCN2c3ccccc3Sc3ccc(Cl)cc32)CC1
endpoint: mean survival time, dose: 16.6 mg/kg/injection, schedule: Q01DX009 (ip), vehicle: saline
  T/C: 108 % of control
endpoint: mean survival time, dose: 25.0 mg/kg/injection, schedule: Q01DX009 (ip), vehicle: saline
  T/C: 103 % of control
